Measurements taken from ChEMBL document CHEMBL6177995, “In Silico Discovery of Novel Potent Trace Amine-Associated Receptor TAAR1 Agonists as Promising Drug Candidates for the Treatment of Schizophrenia” (J Med Chem, 2025).
pEC50: −log10 of the molar value.

Key:
[1] = biological target: T1, Trace amine-associated receptor 1 (Homo sapiens, UniProt Q96RJ0); experiment: Agonist activity at TAAR1 (unknown origin) transfected in HEK293 cells co-transfected with GalphaS-Nluc, Gbeta1/3 and Ggamma1/2/9-mVenus assessed as GalphaS-Gbeta/gamma dissociation by BRET assay; format: functional, cell-based
T1 sequence (Q96RJ0 whole entry): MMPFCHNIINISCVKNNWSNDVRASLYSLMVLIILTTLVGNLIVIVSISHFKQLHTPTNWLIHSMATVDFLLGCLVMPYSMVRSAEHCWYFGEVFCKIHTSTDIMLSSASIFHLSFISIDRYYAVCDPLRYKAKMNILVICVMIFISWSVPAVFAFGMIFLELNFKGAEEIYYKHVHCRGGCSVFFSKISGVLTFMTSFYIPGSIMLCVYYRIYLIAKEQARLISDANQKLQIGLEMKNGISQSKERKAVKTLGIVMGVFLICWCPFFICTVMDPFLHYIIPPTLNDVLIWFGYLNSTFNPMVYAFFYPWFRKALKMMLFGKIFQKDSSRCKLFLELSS

[2] = biological target: T1, Trace amine-associated receptor 1; experiment: Agonist activity at TAAR1 (unknown origin) transfected in HEK293 cells co-transfected with Galphaq-Nluc, Gbeta1/3 and Ggamma1/2/9-mVenus assessed as Galphaq-Gbeta/gamma dissociation by BRET assay; format: functional, cell-based
[3] = Toxicity in male C57BL/6J mouse assessed as catalepsy by measuring extrapyramidal symptoms at 3 mg/kg, ip measured after 30 to 60 mins by bar test; format: organism-based; conditions: in vivo, time 30-60 min
[4] = Half-life in Sprague-Dawley rat at 2 mg/kg, iv measured after 8 hrs by LC-MS/MS analysis; format: ADME, organism-based; conditions: in vivo
[5] = Tmax in Sprague-Dawley rat at 2 mg/kg, iv measured after 8 hrs by LC-MS/MS analysis; format: ADME, organism-based; conditions: in vivo
[6] = Cmax in Sprague-Dawley rat at 2 mg/kg, iv measured after 8 hrs by LC-MS/MS analysis; format: ADME, organism-based; conditions: in vivo
[7] = AUC (0 to t) in Sprague-Dawley rat at 2 mg/kg, iv measured after 8 hrs by LC-MS/MS analysis; format: ADME, organism-based; conditions: in vivo
[8] = AUC (0 to infinity) in Sprague-Dawley rat at 2 mg/kg, iv measured after 8 hrs by LC-MS/MS analysis; format: ADME, organism-based; conditions: in vivo
[9] = Clearance in Sprague-Dawley rat at 2 mg/kg, iv measured after 8 hrs by LC-MS/MS analysis; format: ADME, organism-based; conditions: in vivo
[10] = Half-life in Sprague-Dawley rat at 10 mg/kg, po measured after 8 hrs by LC-MS/MS analysis; format: ADME, organism-based; conditions: in vivo
[11] = Tmax in Sprague-Dawley rat at 10 mg/kg, po measured after 8 hrs by LC-MS/MS analysis; format: ADME, organism-based; conditions: in vivo
[12] = Cmax in Sprague-Dawley rat at 10 mg/kg, po measured after 8 hrs by LC-MS/MS analysis; format: ADME, organism-based; conditions: in vivo
[13] = AUC (0 to t) in Sprague-Dawley rat at 10 mg/kg, po measured after 8 hrs by LC-MS/MS analysis; format: ADME, organism-based; conditions: in vivo
[14] = AUC (0 to infinity) in Sprague-Dawley rat at 10 mg/kg, po measured after 8 hrs by LC-MS/MS analysis; format: ADME, organism-based; conditions: in vivo
[15] = Oral bioavailability in Sprague-Dawley rat at 10 mg/kg measured after 8 hrs by LC-MS/MS analysis; format: ADME, organism-based; conditions: in vivo
[16] = Acute toxicity in Kunming mouse assessed as abnormalities at 1000 mg/kg, po administered as single dose and measured after 7 days; format: organism-based; conditions: in vivo, 168 h, time 7 day
[17] = Acute toxicity in Kunming mouse assessed as animal death at 1000 mg/kg, po administered as single dose and measured after 7 days; format: organism-based; conditions: in vivo, 168 h, time 7 day
[18] = Acute toxicity in Kunming mouse assessed as effect on body weight at 1000 mg/kg, po administered as single dose and measured after 7 days; format: organism-based; conditions: in vivo, 168 h, time 7 day
[19] = Acute toxicity in Kunming mouse assessed as effect on heart co-efficient at 1000 mg/kg, po administered as single dose and measured after 7 days; format: organism-based; conditions: in vivo, 168 h, time 7 day
[20] = Acute toxicity in Kunming mouse assessed as effect on liver co-efficient at 1000 mg/kg, po administered as single dose and measured after 7 days; format: organism-based; conditions: in vivo, 168 h, time 7 day
[21] = Acute toxicity in Kunming mouse assessed as effect on spleen co-efficient at 1000 mg/kg, po administered as single dose and measured after 7 days; format: organism-based; conditions: in vivo, 168 h, time 7 day
[22] = Acute toxicity in Kunming mouse assessed as effect on lung co-efficient at 1000 mg/kg, po administered as single dose and measured after 7 days; format: organism-based; conditions: in vivo, 168 h, time 7 day
[23] = Acute toxicity in Kunming mouse assessed as effect on kidney co-efficient at 1000 mg/kg, po administered as single dose and measured after 7 days; format: organism-based; conditions: in vivo, 168 h, time 7 day
[24] = Subacute toxicity in Kunming mouse assessed as abnormalities at 50 mg/kg, po administered every two days for 14 days; format: organism-based; conditions: in vivo, 336 h, time 14 day
[25] = Subacute toxicity in Kunming mouse assessed as animal death at 50 mg/kg, po administered every two days for 14 days; format: organism-based; conditions: in vivo, 336 h, time 14 day
[26] = Subacute toxicity in Kunming mouse assessed as effect on body weight at 50 mg/kg, po administered every two days for 14 days; format: organism-based; conditions: in vivo, 336 h, time 14 day
[27] = Subacute toxicity in Kunming mouse assessed as effect on heart coefficient at 50 mg/kg, po administered every two days for 14 days; format: organism-based; conditions: in vivo, 336 h, time 14 day
[28] = Subacute toxicity in Kunming mouse assessed as effect on liver coefficient at 50 mg/kg, po administered every two days for 14 days; format: organism-based; conditions: in vivo, 336 h, time 14 day
[29] = Subacute toxicity in Kunming mouse assessed as effect on spleen coefficient at 50 mg/kg, po administered every two days for 14 days; format: organism-based; conditions: in vivo, 336 h, time 14 day
[30] = Subacute toxicity in Kunming mouse assessed as effect on lung coefficient at 50 mg/kg, po administered every two days for 14 days; format: organism-based; conditions: in vivo, 336 h, time 14 day
[31] = Subacute toxicity in Kunming mouse assessed as effect on kidney coefficient at 50 mg/kg, po administered every two days for 14 days; format: organism-based; conditions: in vivo, 336 h, time 14 day
[32] = Subacute toxicity in Kunming mouse assessed as pathological changes in heart at 50 mg/kg, po administered every two days for 14 days by H and E staining based analysis; format: organism-based; conditions: in vivo, 336 h, time 14 day
[33] = Subacute toxicity in Kunming mouse assessed as pathological changes in liver at 50 mg/kg, po administered every two days for 14 days by H and E staining based analysis; format: organism-based; conditions: in vivo, 336 h, time 14 day
[34] = Subacute toxicity in Kunming mouse assessed as pathological changes in spleen at 50 mg/kg, po administered every two days for 14 days by H and E staining based analysis; format: organism-based; conditions: in vivo, 336 h, time 14 day
[35] = Subacute toxicity in Kunming mouse assessed as pathological changes in lung at 50 mg/kg, po administered every two days for 14 days by H and E staining based analysis; format: organism-based; conditions: in vivo, 336 h, time 14 day
[36] = Subacute toxicity in Kunming mouse assessed as pathological changes in kidney at 50 mg/kg, po administered every two days for 14 days by H and E staining based analysis; format: organism-based; conditions: in vivo, 336 h, time 14 day
[37] = Metabolic stability in human liver microsomes assessed as half-life preincubated for 60 mins followed by NADPH addition and measured after 60 mins by LC-MS/MS analysis; format: ADME, Microsome; conditions: time 120 min
[38] = Metabolic stability in human liver microsomes assessed as intrinsic clearance preincubated for 60 mins followed by NADPH addition and measured after 60 mins by LC-MS/MS analysis; format: ADME, Microsome; conditions: time 120 min, read-out: CLH
[39] = Aqueous solubility of compound at pH 2.0; format: physicochemical; conditions: aqueous solution
[40] = Aqueous solubility of compound at pH 7.0; format: physicochemical; conditions: aqueous solution
[41] = Aqueous solubility of compound at pH 7.4; format: physicochemical; conditions: aqueous solution
Mus musculus [42] = experiment: Antipsychotic activity in MK-801 induced male C57BL/6J mouse model assessed as reduction in hyperlocomotion preadministered orally for 30 mins followed by MK801 administration for 30 mins and measured after 10 mins by open field test; format: functional, organism-based; conditions: dose 1-10 mg/kg, route po, time 70.0 min
Mus musculus [43] = experiment: Antipsychotic activity in MK-801 induced male C57BL/6J mouse model assessed as locomotion at 10 mg/kg, po preadministered for 30 mins followed by MK801 administration for 30 mins and measured after 10 mins by open field test (reference value: 8631.5 cm); format: functional; conditions: time 70 min, 1.167 h
[44] = Toxicity in male C57BL/6J mouse assessed as effect on locomotion at 1 to 10 mg/kg, po administered for 30 mins and measured after 10 mins by open field test; format: organism-based; conditions: in vivo, 40 min, dose 1-10 mg/kg
Mus musculus [45] = experiment: Antipsychotic activity in MK-801 induced male C57BL/6J mouse model assessed as improvement in recognition deficit performance by measuring discrimination index at 3 mg/kg, po pre-administered with MK-801 as twice daily days for 7 days followed by 1 week of washout period and measured after 1 hrs of compound administration by novel object recognition test (reference value: 0.37); format: functional
[46] = Toxicity in male C57BL/6J mouse assessed as catalepsy performance at 30 mg/kg, ip measured after 30 to 60 mins by bar test; format: organism-based; conditions: in vivo, time 30-60 min
[47] = biological target: T2, Trace amine-associated receptor 1 (Homo sapiens) (UniProt Q96RJ0); experiment: Potency index, ratio of SEP-363856 EC50 to test compound EC50 for agonist activity at TAAR1 (unknown origin) transfected in HEK293 cells co-transfected with GalphaS-Nluc, Gbeta1/3 and Ggamma1/2/9-mVenus assessed as GalphaS-Gbeta/gamma dissociation by BRET assay; format: functional, cell-based; conditions: filed as agonist
T2 sequence (whole entry): T1 sequence (Q96RJ0 whole entry)

N#Cc1cccc(S(=O)(=O)NC[C@@H]2CCCN2)c1
pEC50 [1]: < 5.00
pEC50 [2]: < 5.00

N[C@H]1CN(c2ncccc2C(F)(F)F)C[C@@H]1C1CC1
pEC50 [2]: 7.04

COc1ccccc1S(=O)(=O)NC[C@@H]1CCCN1
pEC50 [2]: 8.11

O=c1[nH]c2ccc(S(=O)(=O)NC[C@@H]3CCCN3)cc2[nH]1
pEC50 [1]: < 5.00
pEC50 [2]: < 5.00

O=S(=O)(NC[C@@H]1CCCN1)c1ccc2c(c1)CCC2
pEC50 [1]: < 5.00
pEC50 [2]: < 5.00

O=S(=O)(NC[C@@H]1CCCN1)c1ccc(C(F)(F)F)cc1
pEC50 [1]: < 5.00
pEC50 [2]: < 5.00

O=C(CCCN1CCC(O)(c2ccc(Cl)cc2)CC1)c1ccc(F)cc1 [HALOPERIDOL]
Activity [3]: Toxic

CNc1ncc(S(C)(=O)=O)c(C2CCCNC2)n1 (stereo not drawn)
pEC50 [1]: 7.31

COc1cccc(S(=O)(=O)NC[C@@H]2CCCN2)c1.Cl
half-life [4]: 21 min
Tmax [5]: 1.8 min
Cmax [6]: 0.746 µg/mL
AUC(0-t) at 8 h [7]: 0.355 µg·h/mL
AUC(0-inf) [8]: 0.356 µg·h/mL
clearance [9]: 5.65 L/h/kg
half-life [10]: 91.8 min
Tmax [11]: 25.2 min
Cmax [12]: 0.0637 µg/mL
AUC(0-t) at 8 h [13]: 0.229 µg·h/mL
AUC(0-inf) [14]: 0.24 µg·h/mL
bioavailability [15]: 13.4%
Activity [16]: Non-toxic
Activity [17]: Non-toxic
Activity [18]: Non-toxic
Activity [19]: Non-toxic
Activity [20]: Non-toxic
Activity [21]: Non-toxic
Activity [22]: Non-toxic
Activity [23]: Non-toxic
Activity [24]: Non-toxic
Activity [25]: Non-toxic
Activity [26]: Non-toxic
Activity [27]: Non-toxic
Activity [28]: Non-toxic
Activity [29]: Non-toxic
Activity [30]: Non-toxic
Activity [31]: Non-toxic
Activity [32]: Non-toxic
Activity [33]: Non-toxic
Activity [34]: Non-toxic
Activity [35]: Non-toxic
Activity [36]: Non-toxic
half-life [37]: 126 min
microsomal CLint [38]: 11 µL/min/mg
solubility [39]: 96.2 mg/mL
solubility [40]: 65.7 mg/mL
solubility [41]: 43.3 mg/mL
Activity (Mus musculus [42]): Dose-dependent-effect
Activity (Mus musculus [43]): 3917.8 cm
Activity [44]: Non-toxic
Activity_index (Mus musculus [45]): 0.48
Activity [46]: Non-toxic
pEC50 [1]: 8.21
pEC50 [2]: 7.83
Ratio EC50 [47]: 3.5
